Experimental data as given in US20260027105A1, “COMPOUND MEDICINE COMPOSITION FOR TREATING GLAUCOMA AND USE OF SAME” (Shenyang Pharmaceutical University, priority 2022, published 2026).
Where a name gives a salt, the structure may show the parent alone. Read-outs that look alike come from different tables or passages of the source.

How the values were obtained:
[1] = Stability and compatibility of netarsudil dimesylate in boric acid-sodium borate buffer solution; format: physicochemical; details: commercially available doses mixed in boric acid-sodium borate buffer solution, pH 4.5 to 5.4
[2] = prescribing information and literature reports of Rhopress®, cited from earlier work

Row | Molecule | compatibility with netarsudil dimesylate (white precipitate) [1] | stability in boric acid-sodium borate buffer solution ([2]; pH higher than 5.4) | stability in boric acid-sodium borate buffer solution ([2]; pH lower than 5.4, commercially available dose)
1 | CC(C)(C)NCC(O)COc1cccc2c1CCC(=O)N2 (centres unmarked) [carteolol hydrochloride] | incompatible | – | –
2 | Cl [hydrochloric acid] | incompatible | – | –
3 | CC(C)(C)NC[C@H](O)COc1nsnc1N1CCOCC1 [timolol maleate] | incompatible | – | –
4 | netarsudil dimesylate | – | unstable and prone to generating precipitate | good in stability
5 | O=C(O)/C=C\C(=O)O [maleic acid] | incompatible | – | –
6 | CC(C)NCC(O)COc1ccc(CCOCC2CC2)cc1 (centres unmarked) [betaxolol hydrochloride] | incompatible | – | –
7 | CC(=O)Oc1c(C)cc(OCC(O)CNC(C)C)c(C)c1C (centres unmarked) [metipranolol hydrochloride] | incompatible | – | –
